Measurements from US20260176253A1 (priority 2021, published 2026).
pEC50, pIC50: −log10 of the molar value.

Experiments:
5HT2A sensor [1] = type: cell-based
5HT2A sensor [2] = type: cell-based; remark: listed apart in the source
rat cortical neurons = experiment: Neurite outgrowth in primary neuronal cultures assay; type: cell-based; design: key: A: Statistically significant mean increase as a percent of DMSO control at 10 μM or less; B: No statistically significant mean increase as a percent of DMSO control at 10 μM or less; settings: 72h, vs DMSO control, 10 μM or less
From the text: Neurite Outgrowth Assay. Neurite Outgrowth in Primary Neuronal Cultures Assay. Changes in the pattern of neurite outgrowth have been implicated in psychiatric and neurodegenerative disorders as well as traumatic injuries. The discovery of new compounds that can positively affect neuritogenesis are important for developing new therapeutics for neurological diseases. Measurement of neurite outgrowth of rat cortical neurons using an automated image-based assay was used to determine the neuroplastic effects of the compounds of the present disclosure. The neurite outgrowth assay was performed at Neurofit SAS (France) as described below.
Pregnant Wistar rats (Janvier; France) were used for the study. They were delivered 6 days before their use. Upon arrival at Neurofit animal facility, they were housed one per cage and maintained in a room with controlled temperature (21-22° C.) and a reversed light-dark cycle (12 h/12h; lights on: 17:30-05:30; lights off: 05:30-17:30) with food and water available ad libitum.
Female Wistar rats of 17 days gestation were killed by cervical dislocation and the fetuses were removed from the uterus. Their brains were placed in ice-cold medium of Leibovitz (L15, Gibco, Fisher bioblock, France). Cortices were dissected and meninges were carefully removed. The cortical neurons were dissociated by trypsinization for 30 min at 37° C. (trypsin-EDTA, Gibco) in presence of 0.1 mg/ml DNAse I (Roche, France). The reaction was stopped by addition of Dulbecco's Modified Eagle Medium (DMEM; Gibco) with 10% of fetal bovine serum (FBS; Gibco). The suspension was triturated with a 10-ml pipette and using a needle syringe 21G and centrifuged at 350×g for 10 min at room temperature. The pellet of dissociated cells was resuspended in a medium consisting of Neurobasal (Gibco) supplemented with 2% B27 supplement (Gibco), 0.5 mM L-Glutamine (Gibco), an antibiotic-antimicotic mixture. Viable cells were counted in a Neubauer cytometer using the trypan blue exclusion test (Sigma). Cells were seeded at a density of 10000 cells per well in 96-well plate (Costar) precoated with poly-L-lysine. Test compound at different concentrations were added to the cultures. Donepezil (positive control) was tested at 250 nM.
After 72h (3 days) of plating, cultures were fixed with paraformaldehyde in PBS (4%, Sigma) for 30 min at 4° C. Then, cells were successively permeabilized with 0.1% Triton X100 for 30 min, saturated with PBS containing 3% of BSA and were incubated 1 h with anti-beta III tubulin antibody (Sigma) at 1/10 000 in PBS containing 0.5% of BSA. Cells were washed three times with PBS containing 0.5% of BSA, and they were incubated 1 h with goat anti-mouse antibody coupled with AF488 (Invitrogen A11001) diluted at 1/1000 in PBS containing 0.5% of BSA. Finally, nuclei were staining with DAPI 1 mg/ml at 1/1000 in PBS containing 0.5% of BSA. After rinsing with PBS, the plate was filmed and neurite networks were examined and analyzed using High-Content Screening (CellInsight, Thermo Scientific). The average number of neurites per neuron and the average total length of neurites per neuron were the main parameters analyzed. Analysis of data was performed using analysis of variance (ANOVA). The Fisher's Protected Least Significant Difference test was used for multiple comparisons. A p value ≤0.05 was considered significant. The software used is StatView 5.0 from SAS Institut.

5-HT2A [3] = target: T1, 5-HT2A (Homo sapiens, UniProt P28223); experiment: Serotonin 5-HT2A in vitro cellular IPOne agonism assay (HTRF); type: cell-based; design: host or cells: CHO-K1; settings: CHO-K1 cells, 60 min
Protocol: (§1) Serotonin 5-HT2AIn Vitro Cellular IPOne Agonism Assay. The 5-HT2AIPOne HTRF assay was performed at Epics Therapeutics S. A. (Belgium, FAST-0505I) using conventional methods. Briefly, CHO—K1 cells expressing human recombinant 5-HT2A receptor grown to mid-log phase in culture media without antibiotics were detached with PBS-EDTA, centrifuged, and resuspended in medium without antibiotics buffer. 20,000 cells were distributed in a 96 well plate and incubated overnight at 37° C. with 5% Co2.
For agonist testing, the medium was removed and 20 μl of assay buffer plus 20 μl of test compound or reference agonist were added in each well. The plate was incubated for 60 min. at 37° C. with 5% CO2.
(§2) After addition of the lysis buffer containing IP1-d2 and anti-IP1 cryptate detection reagents, plates were incubated 1-hour at room temperature, and fluorescence ratios were measured according to the manufacturer specification, with the HTRF kit.

5-HT2A [4] = target: T1, 5-HT2A; experiment: Serotonin 5-HT2A in vitro cellular IPOne antagonism assay (HTRF); type: cell-based; design: host or cells: CHO-K1; settings: CHO-K1 cells, reference agonist a-Me-5HT
Protocol: as §1, with “Antagonism” for “Agonism”, “FAST-0505I) in antagonism mode” for “FAST-0505I)”
For antagonist testing, a reference agonist a-Me-5HT was added and fluorescence signal monitored for several minutes, followed by addition of 20 μl of assay buffer plus 20 μl of test compound or reference antagonist ketanserin, in each well. The plate was incubated for 60 min. at 37° C. with 5% CO2.
as §2

5-HT2A [5] = target: T1, 5-HT2A; experiment: Serotonin 5-HT2A in vitro radioligand binding competition assay ([3H]-DOI); design: purchased Epics Therapeutics S. A. (Belgium), contract assay FAST-0505B; host or cells: membrane extracts; settings: [3H]-DOI competition, membrane extracts; read-out: 5HT2A R[…] ACTIVITY
Protocol: Serotonin 5-HT2AIn Vitro Radioligand Binding Competition Assay. The 5-HT2A radioligand binding competition assay was performed at Epics Therapeutics S. A. (Belgium, FAST-0505B) using conventional methods. Briefly, competition binding is performed in duplicate in the wells of a 96 well plate (Master Block, Greiner, 786201) containing binding buffer (optimized for each receptor), membrane extracts (amount of protein/well optimized for each receptor), radiotracer [3H]-DOI (final concentration optimized for each receptor) and test compound. Nonspecific binding was determined by co-incubation with 200-fold excess of cold competitor. The samples were incubated in a final volume of 0.1 ml at a temperature and for a duration optimized for each receptor and then filtered over filter plates. Filters were washed six times with 0.5 ml of ice-cold washing buffer (optimized for each receptor) and 50 µl of Microscint 20 (Packard) were added in each well. The plates were incubated 15 min on an orbital shaker and then counted with a TopCount™ for 1 min/well.

T1 sequence (P28223 whole entry): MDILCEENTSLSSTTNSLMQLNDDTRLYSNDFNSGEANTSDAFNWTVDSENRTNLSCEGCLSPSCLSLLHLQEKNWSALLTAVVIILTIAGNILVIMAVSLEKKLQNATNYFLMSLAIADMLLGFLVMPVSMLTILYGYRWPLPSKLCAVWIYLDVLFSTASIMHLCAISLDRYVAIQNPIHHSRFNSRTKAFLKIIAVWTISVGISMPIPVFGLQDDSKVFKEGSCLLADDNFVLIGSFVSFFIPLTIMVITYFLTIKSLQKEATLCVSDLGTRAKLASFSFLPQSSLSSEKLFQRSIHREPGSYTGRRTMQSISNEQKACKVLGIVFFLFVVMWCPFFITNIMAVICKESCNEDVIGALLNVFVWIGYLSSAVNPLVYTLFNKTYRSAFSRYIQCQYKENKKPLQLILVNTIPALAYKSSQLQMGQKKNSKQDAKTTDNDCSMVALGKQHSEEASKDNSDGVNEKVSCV

CCN(CC)C(=O)[C@@H]1C=C2c3cccc4[nH]c(Br)c(c34)C[C@H]2N(C)C1 [BOL148]
activation of the 5HT2A sensor assay in agonist mode (5HT2A sensor [1]): do not activate the 5HT2A sensor assay in agonist mode | competition with 5-HT in the 5HT2A sensor assay in antagonist mode (5HT2A sensor [2]): can compete with 5HT binding to 5HT2A

CCN(CC)CCc1c[nH]c2cc(F)ccc12 [Compound 6-F-DET]
activation of the 5HT2A sensor assay in agonist mode (5HT2A sensor [1]): do not activate the 5HT2A sensor assay in agonist mode | competition with 5-HT in the 5HT2A sensor assay in antagonist mode (5HT2A sensor [2]): can compete with 5HT binding to 5HT2A

O=C(c1ccc(F)cc1)C1CCN(CCn2c(=O)[nH]c3ccccc3c2=O)CC1 [Ketanserin]
activation of the 5HT2A sensor assay in agonist mode (5HT2A sensor [1]): do not activate the 5HT2A sensor assay in agonist mode | competition with 5-HT in the 5HT2A sensor assay in antagonist mode (5HT2A sensor [2]): can compete with 5HT binding to 5HT2A

CN[C@H](C)Cc1ccc2c(c1)OCO2 [L-MDMA]
activation of the 5HT2A sensor assay in agonist mode (5HT2A sensor [1]): do not activate the 5HT2A sensor assay in agonist mode

CN(C)CCc1c[nH]c2ccccc12 [DMT, N,N-dimethyltryptamine]
activation of the 5HT2A sensor assay in agonist mode (5HT2A sensor [1]): activate the 5HT2A sensor assay in agonist mode

c1ccc2c3c([nH]c2c1)C[C@H]1CCCN1CC3 [Compound 20, (R)-1,2,3,5,6,11,12,12a-octahydropyrrolo[1′,2′:1,2]azepino[4,5-b]indole]
INCREASE IN NEURITE BRANCHING (rat cortical neurons): A | INCREASE IN NEURITE LENGTH (rat cortical neurons): A | INCREASE IN NEURITE NUMBER (rat cortical neurons): A | pEC50 (5-HT2A [3]): 6.00 to 7.00 | pIC50 (5-HT2A [4]): 5.00 to 6.00 | pIC50 (5-HT2A [5]): 6.00 to 7.00

COc1ccc2c3c([nH]c2c1)C[C@H]1CCCN1CC3 [Compound 18, (R)-9-methoxy-1,2,3,5,6,11,12,12a-octahydropyrrolo[1′,2′:1,2]azepino[4,5-b]indole]
INCREASE IN NEURITE BRANCHING (rat cortical neurons): A | INCREASE IN NEURITE LENGTH (rat cortical neurons): A | INCREASE IN NEURITE NUMBER (rat cortical neurons): A | pEC50 (5-HT2A [3]): < 5.00 | pIC50 (5-HT2A [4]): 6.00 to 7.00 | pIC50 (5-HT2A [5]): < 5.00

COc1ccc2c3c([nH]c2c1)CCN1CCC[C@H]1C3 [Compound 25, (S)-9-methoxy-1,2,3,5,6,7,12,12a-octahydropyrrolo[1′,2′:1,7]azepino[4,5-b]indole]
INCREASE IN NEURITE BRANCHING (rat cortical neurons): A | INCREASE IN NEURITE LENGTH (rat cortical neurons): A | INCREASE IN NEURITE NUMBER (rat cortical neurons): A | pEC50 (5-HT2A [3]): < 5.00 | pIC50 (5-HT2A [4]): 6.00 to 7.00 | pIC50 (5-HT2A [5]): < 5.00

FC(F)(F)c1cccc2[nH]c3c(c12)CCN1CCCC1C3 (stereo not shown) [Compound 21, 7-(trifluoromethyl)-1,2,3,5,6,11,12,12a-octahydropyrrolo[1′,2′:1,2]azepino[4,5-b]indole]
INCREASE IN NEURITE BRANCHING (rat cortical neurons): A | INCREASE IN NEURITE LENGTH (rat cortical neurons): A | INCREASE IN NEURITE NUMBER (rat cortical neurons): B | pEC50 (5-HT2A [3]): < 5.00 | pIC50 (5-HT2A [4]): 6.00 to 7.00 | pIC50 (5-HT2A [5]): 5.00 to 6.00

COc1cccc2[nH]c3c(c12)C[C@@H]1CCCN1CC3 [Compound 27, (S)-11-methoxy-1,2,3,5,6,7,12,12a-octahydropyrrolo[1′,2′:1,7]azepino[4,5-b]indole]
INCREASE IN NEURITE BRANCHING (rat cortical neurons): A | INCREASE IN NEURITE LENGTH (rat cortical neurons): A | INCREASE IN NEURITE NUMBER (rat cortical neurons): A | pEC50 (5-HT2A [3]): 7.00 to 8.00 | pIC50 (5-HT2A [4]): 7.00 to 8.00 | pIC50 (5-HT2A [5]): 7.00 to 8.00

CCN(CC)C(=O)[C@@H]1C=C2c3cccc4[nH]cc(c34)C[C@H]2N(C)C1 [LSD]
activation of the 5HT2A sensor assay in agonist mode (5HT2A sensor [1]): activate the 5HT2A sensor assay in agonist mode

c1ccc2c3c([nH]c2c1)CCN1CCC[C@@H]1C3 [Compound 22, (R)-1,2,3,5,6,7,12,12a-octahydropyrrolo[1′,2′:1,7]azepino[4,5-b]indole]
INCREASE IN NEURITE BRANCHING (rat cortical neurons): A | INCREASE IN NEURITE LENGTH (rat cortical neurons): A | INCREASE IN NEURITE NUMBER (rat cortical neurons): A | pEC50 (5-HT2A [3]): 6.00 to 7.00 | pIC50 (5-HT2A [4]): 6.00 to 7.00 | pIC50 (5-HT2A [5]): 5.00 to 6.00

Cn1c2c(c3ccccc31)CCN1CCCC1C2 (stereo not shown) [Compound 3, 11-methyl-1,2,3,5,6,11,12,12a-octahydropyrrolo[1′,2′:1,2]azepino[4,5-b]indole]
INCREASE IN NEURITE BRANCHING (rat cortical neurons): B | INCREASE IN NEURITE LENGTH (rat cortical neurons): A | INCREASE IN NEURITE NUMBER (rat cortical neurons): B | pEC50 (5-HT2A [3]): 5.00 to 6.00 | pIC50 (5-HT2A [4]): 6.00 to 7.00 | pIC50 (5-HT2A [5]): 6.00 to 7.00

COc1cc(CC(C)N)c(OC)cc1I (stereo not shown) [DOI]
activation of the 5HT2A sensor assay in agonist mode (5HT2A sensor [1]): activate the 5HT2A sensor assay in agonist mode

FC(F)(F)c1cccc2[nH]c3c(c12)CC1CCCN1CC3 (stereo not shown) [Compound 28, 11-(trifluoromethyl)-1,2,3,5,6,7,12,12a-octahydropyrrolo[1′,2′:1,7]azepino[4,5-b]indole]
INCREASE IN NEURITE BRANCHING (rat cortical neurons): A | INCREASE IN NEURITE LENGTH (rat cortical neurons): A | INCREASE IN NEURITE NUMBER (rat cortical neurons): A | pEC50 (5-HT2A [3]): 5.00 to 6.00 | pIC50 (5-HT2A [4]): 7.00 to 8.00 | pIC50 (5-HT2A [5]): 6.00 to 7.00

c1ccc2c3c([nH]c2c1)CCN1CCCC1C3 (stereo not shown) [Compound 7, 1,2,3,5,6,7,12,12a-octahydropyrrolo[1′,2′:1,7]azepino[4,5-b]indole]
INCREASE IN NEURITE BRANCHING (rat cortical neurons): A | INCREASE IN NEURITE LENGTH (rat cortical neurons): A | INCREASE IN NEURITE NUMBER (rat cortical neurons): A | pEC50 (5-HT2A [3]): 5.00 to 6.00 | pIC50 (5-HT2A [4]): 6.00 to 7.00 | pIC50 (5-HT2A [5]): 6.00 to 7.00

Cn1c2c(c3ccccc31)CC1CCCN1CC2 (stereo not shown) [Compound 6, 7-methyl-1,2,3,5,6,7,12,12a-octahydropyrrolo[1′,2′:1,7]azepino[4,5-b]indole]
INCREASE IN NEURITE BRANCHING (rat cortical neurons): B | INCREASE IN NEURITE LENGTH (rat cortical neurons): A | INCREASE IN NEURITE NUMBER (rat cortical neurons): B | pEC50 (5-HT2A [3]): < 5.00 | pIC50 (5-HT2A [4]): 6.00 to 7.00 | pIC50 (5-HT2A [5]): 6.00 to 7.00
